Test results: PubChem BioAssay (NCI)
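Cells were grown in 96-well plates and exposed to each compound for 48 hours at five concentrations; endpoints were interpolated linearly between bracketing concentrations, or set to the highest concentration if not reached. Definition used: TGI = concentration required for complete inhibition of growth.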

How the values were obtained:
Assay in all cases: NCI-60 cell line screen, 48 h
SNB-75 CNS = tested on: SNB-75 CNS
A498 renal = tested on: A498 renal
HOP-62 NSCLC = tested on: HOP-62 NSCLC
SNB-19 CNS = tested on: SNB-19 CNS
UO-31 renal = tested on: UO-31 renal
NCI-H23 lung = tested on: NCI-H23 lung
SN12C renal = tested on: SN12C renal
HOP-92 NSCLC = tested on: HOP-92 NSCLC
UACC-62 melanoma = tested on: UACC-62 melanoma
HCC-2998 colon = tested on: HCC-2998 colon
M14 melanoma = tested on: M14 melanoma

| SMILES | TGI (SNB-75 CNS) [µM] | TGI (A498 renal) [µM] | TGI (HOP-62 NSCLC) [µM] | TGI (SNB-19 CNS) [µM] | TGI (UO-31 renal) [µM] | TGI (NCI-H23 lung) [µM] | TGI (SN12C renal) [µM] | TGI (HOP-92 NSCLC) [µM] | TGI (UACC-62 melanoma) [µM] | TGI (HCC-2998 colon) [µM] | TGI (M14 melanoma) [µM] |
| --- | --- | --- | --- | --- | --- | --- | --- | --- | --- | --- | --- |
| CCOC(=O)c1ccc(NC(=O)O/N=C(/Cl)CCl)cc1 | > 100 | > 100 | > 100 | > 100 | > 100 | > 100 | > 100 | – | – | – | – |
| O=C(/C=C/C=C/c1ccccc1)c1ccc2c(c1)CCCC2 | – | > 100 | > 100 | > 100 | > 100 | > 100 | > 100 | 89.9 | > 100 | 63.3 | > 100 |
| COC(=O)C1(OC(=O)Sc2ccccc2)CCN(C)CC1 | 40.1 | 45.8 | > 66.6 | > 100 | 20.8 | 50.2 | 21.3 | – | > 64.7 | > 73 | > 58.6 |
| O=C(NCCCN(CCCCN(CCCNC(=O)C(F)(F)F)CCCc1ccccc1)CCCc1ccccc1)C(F)(F)F | 2.56 | – | – | 4.17 | 2.52 | 25.3 | 5.8 | 4.63 | 3.36 | 3.27 | 3.25 |
| COc1ccc(C(=O)/C=C/c2ccncc2)cc1OC | 26.3 | 30.9 | 29.9 | 32.5 | 28.1 | 22.7 | 29.2 | 27.6 | 30 | – | 27.8 |
| Nc1nc2c(ncn2Cc2ccc(CO)cc2)c(=O)[nH]1 | > 100 | > 100 | > 100 | > 100 | > 100 | > 100 | > 100 | > 100 | > 100 | – | > 100 |
| CN(CCN(C)C(=S)NN)C(=S)NN | > 100 | – | > 100 | > 100 | > 100 | > 100 | > 100 | – | > 100 | > 100 | > 100 |
| COc1ccc(CCN=C2OCc3ccccc32)cc1OC | > 100 | > 100 | – | > 100 | > 100 | > 100 | > 100 | > 100 | > 100 | > 100 | – |
| CN(C)/C=N/n1c2ccccc2c2ccccc21 | > 100 | > 100 | > 100 | > 100 | > 100 | > 100 | > 100 | – | > 100 | > 100 | > 100 |
| Cc1ccc(C(=O)N/N=C(\N=Nc2ccccc2[N+](=O)[O-])c2ccc(N(C)C)cc2)cc1 | – | – | – | > 100 | > 100 | > 100 | > 100 | > 100 | > 100 | > 100 | > 100 |
| COc1ccc(N2C(=O)CS(=O)(=O)C2c2cccc(Oc3ccccc3)c2)cc1 (centres undefined) | 45.2 | – | > 100 | > 100 | 71.3 | > 100 | 21.4 | 72.1 | 6.25 | – | 22.6 |
| O=S(=O)(O)c1ccc(N=Nc2ccc(N=Nc3c(O)ccc4ccccc34)cc2)cc1 | > 100 | – | > 100 | > 100 | > 100 | > 100 | > 100 | > 100 | > 100 | > 100 | > 100 |
| CC(=C\c1ccccc1)/C=C(\C#N)C(N)=O | > 10 | > 10 | > 10 | – | > 10 | – | > 10 | – | – | > 10 | > 10 |
| O=C1/C(=C/c2ccccc2)NC(=S)N1CN1CCOCC1 | > 100 | > 100 | > 100 | > 100 | > 100 | > 100 | > 100 | > 100 | > 100 | – | > 100 |
| COc1ccc(/C=N/n2c(-c3ccccc3)n[nH]c2=O)cc1 | > 100 | > 100 | > 100 | > 100 | > 100 | > 100 | > 100 | – | > 100 | > 100 | > 100 |
| CC[C@]1(Cc2ccc(OC)c(OC)c2)[C@@H]2C[C@@H](C3OCCO3)ON2O[C@H](OC2CCCC2(c2ccccc2)c2ccccc2)[C@@H]1OC(C)=O (some centres undefined) | 46.3 | – | 41.5 | 36.9 | 37.7 | 43.4 | > 100 | – | > 100 | – | 39.6 |
| CN1CCN(CN2C(=O)C3C4C=CC(C3C2=O)C2C(=O)N(CN3CCN(C)CC3)C(=O)C42)CC1 (centres undefined) | > 100 | – | > 87.3 | > 100 | > 100 | > 78.4 | > 100 | > 100 | > 56.9 | > 100 | > 80.6 |
| CC(C)C1=C(Cc2ccccc2)C(=O)O/C1=C\c1cc(Cl)c(O)c(Cl)c1 | 36.8 | 53.1 | 42.4 | 37.1 | 27.1 | 32.9 | 35.6 | – | 36 | 42.3 | 35.6 |
| CC12CC(C#N)(C#N)C(C#N)(CO1)C(=N)O2 (centres undefined) | > 100 | > 100 | – | > 100 | > 100 | > 100 | > 100 | > 100 | > 100 | > 100 | > 100 |
| Oc1ccc(-c2nc(-c3ccc(F)cc3)c(-c3ccc4ccccc4n3)[nH]2)cc1 | 41.6 | – | 33.4 | 37.1 | 26.1 | 25.4 | 32.1 | – | 23.6 | 15.3 | 22.9 |
| COc1cc2c(cc1O)C1C(O)C(O)C=C3CCN(C2)C31 (centres undefined) | 9.69 | – | 10.9 | 10.1 | 9.04 | 6.39 | 14.6 | 5.92 | 3.97 | 8.44 | 4.46 |
| O=C1NN=C2C=C(c3ccc(Cl)cc3)CC(c3cccc(Cl)c3)C12 (centres undefined) | – | – | > 100 | 36.1 | 66.4 | > 100 | 57.5 | 50.9 | 33.6 | 33.5 | > 100 |
